Laboratory results published in patent US7524503B2, “Human cytomegalovirus (HCMV) cytotoxic T cell epitopes, polyepitopes compositions comprising same and diagnostic and prophylactic and therapeutic uses therefor” (priority 2001, dated 2009).

Assays:
HLA A3 = target: T1, HLA A3 (Homo sapiens, UniProt P04439); assay: MHC stabilization assay on T2 cells; assay type: cell-based; conditions: HLA A3 on transfected T2 cells; relative increase vs no peptide at 26° C.
T1 construct: EGFP; expressed in transfected cells; host or cells: T2 cells
T1 sequence (P04439 25-365): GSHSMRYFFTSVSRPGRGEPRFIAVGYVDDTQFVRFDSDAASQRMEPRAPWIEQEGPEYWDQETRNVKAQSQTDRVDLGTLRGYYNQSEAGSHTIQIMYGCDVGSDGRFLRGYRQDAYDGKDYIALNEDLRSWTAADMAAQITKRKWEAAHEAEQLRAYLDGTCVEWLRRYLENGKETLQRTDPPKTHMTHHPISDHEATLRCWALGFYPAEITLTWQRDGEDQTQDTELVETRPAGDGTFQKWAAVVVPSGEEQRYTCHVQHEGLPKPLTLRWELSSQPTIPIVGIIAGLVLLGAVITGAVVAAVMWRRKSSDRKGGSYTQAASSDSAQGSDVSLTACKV
T1 sequence (P61769 21-119, further chain): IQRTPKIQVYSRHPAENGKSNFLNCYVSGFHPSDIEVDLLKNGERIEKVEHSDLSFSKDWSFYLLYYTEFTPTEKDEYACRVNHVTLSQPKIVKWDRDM

HLA A24 = assay: MHC stabilization assay on T2 cells; assay type: cell-based, human; conditions: HLA A24 on transfected T2 cells; relative increase vs no peptide at 26° C.
[1] = tested on: PBMC from healthy HCMV seropositive donors; assay: IFN-γ ELISPOT assay; assay type: cell-based, human; conditions: peptide 10 μg/ml
Outline: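 PBMC from healthy HCMV-seropositive donors (2.5×10^5 cells/well) were stimulated 18 h at 37° C with individual synthetic HCMV peptides (10 μg/ml) on anti-IFN-γ-coated nitrocellulose. IFN-γ spots were developed with biotinylated antibody and streptavidin-alkaline phosphatase and counted automatically. Counts were averaged over 3 wells, and no-peptide wells were subtracted.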

CD8+ T cells = assay: CD4+/CD8+ analysis of 20-mer peptides (intracellular IFN-γ staining or depletion ELISPOT); assay type: cell-based, human
Description: (§1) To determine whether a particular 20-mer peptide contained either a CD4^+- or CD8^+-restricted epitope, or both, CD4^+/CD8^+ cell depletion ELISPOT assays were performed on PBMC from healthy virus carriers. For any one experiment, three populations of cells were used: a) CD8^+-depleted PBMC, b) CD4^+-depleted PBMC, and c) non-depleted PBMC. These populations of cells were tested concurrently with the same peptides in a conventional ELISPOT assay as described herein above. DYNABEADS M-450 (Dynal, Oslo, Norway) that bound specifically to CD4^+- or CD8^+ cells were used to perform the depletion essentially according to manufacturers instructions. Beads were washed twice in cold PBS supplemented with 2% FCS using magnetic isolation. The requisite number of cells was resuspended in cold PBS supplemented with 2% FCS, added to the beads and then incubated at 4° C., in the dark, for 30 mins (CD8^+ beads) or 60 mins (CD4^+ beads). Populations were depleted of CD4^+ or CD8^+ cells using magnetic separation. After depletion, the non-attached cells were removed and washed once in growth medium, counted and used in conventional ELISPOT assay. Depleted cells were used at 1.7×10^5 cells per well and the non-depleted population was used at the standard 2.5×10^5 cells per well. After the depletion step, each respective cell population was assessed for the purity of CD4^+ and CD8^+ T cells by three-colour flow cytometry. Samples of depleted cell populations were stained with anti-CD3 antibody directly conjugated to fluorescein isothiocyanate (FITC), anti-CD4 antibody conjugated with phycoerythrin (PE) fluorochrome, and anti-CD8 antibody conjugated with Tricolor fluorochrome (described below). The percent of CD3^+/CD4^+ cells present within the CD8^+-depleted population and the percent of CD3^+/CD8^+ cells present within the CD4^+-depleted populations were assessed on FACSCalibur cytometer (Becton Dickinson). The purity of each population was greater than 90% and the results from the ELISPOT assays are expressed as the percentage of CD4+ or CD8^+ cells within the depleted populations that responded toward each peptide by producing IFN-γ.
(§2) PBMCs were incubated at 37° C. in RPMI+10% FCS with and without 10 μg/ml peptides for 6 hours. Golgiplug™ (Pharmingen, San Diego, Calif., USA) was added to the samples according to manufacturer's instructions during the second hour of incubation and cells activated with 25 ng/ml phorbol 12-myristidate 13-acetate (PMA; Sigma-Aldrich Co, St. Louis Mo.) and 1 μg/ml iomomycin (Sigma) acted as a positive control. Following the incubation, 1×10^6 cells/sample were washed and resuspended in staining buffer consisting of PBS with GolgiPlug™, 3% FCS and sodium azide. Cells were then stained with FITC conjugated anti-CD3-FITC (UCHT1, Immunotech, Marseille, France), and either Tricolor (TRI) conjugated anti-CD4 (S3.5, Caltag, Burlingame, Calif.) or anti-CD8 (3B5, Caltag) for 30 minutes, 4° C. in the dark. The cells were fixed for 20 min at 4° C. with Cytofix/Cytoperm™ (BD Biosciences) and resuspended in Perm/Wash™ permeabilization buffer (BD Biosciences) according to manufacturers protocol. Fixed cells were stained with phycoerythrin (PE) conjugated anti-human IFN-γ (B27, Pharmingen) for 30 min at 4° C. in the dark. As a negative control, cells were stained with appropriate isotype matched control antibodies. Cells were washed twice in permeabilization buffer and resuspended in staining buffer before analysis by three-colour flow cytometry on a FACSCalibur cytometer (BD Biosciences). All data analysis was carried out using FlowJo software (Tree Star, Inc. San Carlos, CA).
(§3) When using 20-mer peptides to map epitopes by ELISPOT, it is possible that some responses may be MHC class-II restricted, and not necessarily restricted through HLA class I alleles. It was evident throughout this study that some epitopes identified using ELISPOT could not be confirmed using cytotoxicity analysis. […]

CD4+ T cells = assay: as above; assay type: cell-based, human
Description: as §1, §2, §3

[2] = tested on: peptide-sensitized autologous PHA blasts or LCLs; assay type: cell-based, human; design: key to CTL response: Y: Yes; ND: Not detected; conditions: overlapping 20mer peptides, Table 4

| Sequence | MSE (MHC stabilization efficiency) (HLA A3) | MSE (MHC stabilization efficiency) (HLA A24) | further results |
| --- | --- | --- | --- |
| RLNTYALVSK (human cytomegalovirus gH CTL epitope peptide) | +++ (+++ = 200-300%) | – | – |
| KMTATFLSK (human cytomegalovirus gB CTL epitope peptide) | +++ (+++ = 200-300%) | – | – |
| LLLQRGPQY | +++ (+++ = 200-300%) | – | – |
| VYLFSLVVL (human cytomegalovirus US3 CTL epitope peptide) | – | − (− = 0-50%) | – |
| QLNRHSYLK (human cytomegalovirus gH CTL epitope peptide) | +++ (+++ = 200-300%) | – | – |
| SYLKDSDFL (human cytomegalovirus gH CTL epitope peptide) | – | − (− = 0-50%) | – |
| YLMDELRYVK (human cytomegalovirus gH CTL epitope peptide) | − (− = 0-50%) | – | – |
| LVRLVYILSK (human cytomegalovirus gH CTL epitope peptide) | +++ (+++ = 200-300%) | – | – |
| AIIGIYLLY (human cytomegalovirus gH CTL epitope peptide) | NT/+++ (+++ = 200-300%) | – | – |
| ELLGRLNVY (human cytomegalovirus pp28 CTL epitope peptide) | − (− = 0-50%) | – | – |
| VYVTVDCNL (human cytomegalovirus US2 CTL epitope peptide) | – | − (− = 0-50%) | – |
| SLRNSTVVR (human cytomegalovirus gH CTL epitope peptide) | +++ (+++ = 200-300%) | – | – |
| SYRSFSQQL (human cytomegalovirus gH CTL epitope peptide) | – | − (− = 0-50%) | – |
| ELYLMGSLVH (human cytomegalovirus gH CTL epitope peptide) | − (− = 0-50%) | – | – |
| RLLDLAPNY (human cytomegalovirus pp28 CTL epitope peptide) | +++ (+++ = 200-300%) | – | – |
| VYALPLKML | – | − (− = 0-50%) | – |
| LVEPCARVY (human cytomegalovirus pp28 CTL epitope peptide) | NT/++ (++ = 100-199%) | – | – |
| GVMTRGRLK | +++ (+++ = 200-300%) | – | – |
| NYLDLSALL (human cytomegalovirus gH CTL epitope peptide) | – | − (− = 0-50%) | – |
| CYSRPVVIF (human cytomegalovirus gB CTL epitope peptide) | – | − (− = 0-50%) | – |
| ALTVSEHVSY (human cytomegalovirus gH CTL epitope peptide) | ++ (++ = 100-199%) | – | – |
| TVRSHCVSK (human cytomegalovirus pp50 CTL epitope peptide) | +++ (+++ = 200-300%) | – | – |
| EYIVQIQNAF (human cytomegalovirus pp71 CTL epitope peptide) | – | +++ (+++ = 200-300%) | – |
| KYTQTEEKF (human cytomegalovirus IE1 CTL epitope peptide) | – | − (− = 0-50%) | – |

| Sequence | MSE (MHC stabilization efficiency) (HLA A3) | MSE (MHC stabilization efficiency) (HLA A24) | further results |
| --- | --- | --- | --- |
| AYEYVDYLF (human cytomegalovirus gB CTL epitope peptide) | – | − (− = 0-50%) | – |
| IIYTRNHEVK (human cytomegalovirus IE2 CTL epitope peptide) | +++ (+++ = 200-300%) | – | – |
| QVIGDQYVK | ++ (++ = 100-199%) | – | – |
| YYVFHMPRCL (human cytomegalovirus gH CTL epitope peptide) | – | − (− = 0-50%) | – |
| KLGGALQAK (human cytomegalovirus IE1 CTL epitope peptide) | +++ (+++ = 200-300%) | – | – |
| VYYTSAFVF | – | − (− = 0-50%) | – |
| RVTGGGAMA | − (− = 0-50%) | – | – |
| RLFPDATVP (human cytomegalovirus gH CTL epitope peptide) | − (− = 0-50%) | – | – |
| GIKHEGLVK (human cytomegalovirus pp28 CTL epitope peptide) | +++ (+++ = 200-300%) | – | – |
| SYENKTMQL (human cytomegalovirus gB CTL epitope peptide) | – | − (− = 0-50%) | – |
| TLLNCAVTK (human cytomegalovirus pp50 CTL epitope peptide) | +++ (+++ = 200-300%) | – | – |
| ATVQGQNLKYQEFFWDANDI | – | – | ELISPOT Responses (SFC/10^6 PBMC) ([1]; donor epsilon): SC(687) SFC/10^6 PBMC; ELISPOT Responses (SFC/10^6 PBMC) ([1]; donor five): 226 SFC/10^6 PBMC; ELISPOT Responses (SFC/10^6 PBMC) ([1]; donor gamma): 202 SFC/10^6 PBMC; ELISPOT Responses (SFC/10^6 PBMC) ([1]; donor three): 189 SFC/10^6 PBMC; ELISPOT Responses (SFC/10^6 PBMC) ([1]; donor twelve): 25 SFC/10^6 PBMC; Responding cells (% CD8) (CD8+ T cells; donor twelve): 0%; Responding cells (% CD4) (CD4+ T cells; donor twelve): 0.03%; CTL response [2]: Y |
| ELLAGGRVF (human cytomegalovirus pp28 CTL epitope peptide) | − (− = 0-50%) | – | – |
| AYIYTTYLL (human cytomegalovirus gB CTL epitope peptide) | – | − (− = 0-50%) | – |
| TYGRPIRFL (human cytomegalovirus gH CTL epitope peptide) | – | − (− = 0-50%) | – |
| MYMHDSDDVL (human cytomegalovirus gH CTL epitope peptide) | – | − (− = 0-50%) | – |
| QYILGADPL (human cytomegalovirus IE1 CTL epitope peptide) | – | +++ (+++ = 200-300%) | – |
| RSYAYIYTTYLLGSNTEYVA (human cytomegalovirus gB CTL epitope peptide) | – | – | ELISPOT Responses (SFC/10^6 PBMC) ([1]; donor fourteen): RK(170) SFC/10^6 PBMC; Responding cells (% CD8) (CD8+ T cells; donor fourteen): 0.58%; Responding cells (% CD4) (CD4+ T cells; donor fourteen): 0.39%; CTL response [2]: Y |
| SYVVTNQYL (human cytomegalovirus gH CTL epitope peptide) | – | − (− = 0-50%) | – |
| ALALFAAAR (human cytomegalovirus gH CTL epitope peptide) | − (− = 0-50%) | – | – |
| TYALVSKDL (human cytomegalovirus gH CTL epitope peptide) | – | − (− = 0-50%) | – |
| VFTWPPWQAGILARNLVPMV | – | – | ELISPOT Responses (SFC/10^6 PBMC) ([1]; donor delta): 533 SFC/10^6 PBMC; ELISPOT Responses (SFC/10^6 PBMC) ([1]; donor four): 420 SFC/10^6 PBMC; Responding cells (% CD8) (CD8+ T cells; donor delta): 0.45%; Responding cells (% CD4) (CD4+ T cells; donor delta): 0%; CTL response [2]: Y |
| LYLCCGITL (human cytomegalovirus US6 CTL epitope peptide) | – | − (− = 0-50%) | – |
| IMREFNSYK (human cytomegalovirus gB CTL epitope peptide) | +++ (+++ = 200-300%) | – | ELISPOT Responses (SFC/10^6 PBMC) ([1]; donor four): MB(202) SFC/10^6 PBMC |
